According to patent publication US7192906B2, “Substituted pyrazole derivatives, production process thereof, and herbicide compositions containing the derivatives” (SDS Biotech K.K., priority 2001, dated 2007):

What was measured:
Type in all cases: in vivo
[1] = tested on: wheat (Triticum aestivum); assay: Test Example 2 upland soil treatment, crop phytotoxicity; details: Table 5, upland soil treatment, index 0-5
Method in brief: (§1)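 Visual 0–5 grading of herbicidal effect or phytotoxicity, made 21 days after a single pre-emergence soil-surface application at 1 kg a.i./ha.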

[2] = tested on: soybean (Glycine max); assay: as above; details: Table 5, upland soil treatment, index 0-5
Method in brief: as §1

[3] = tested on: Rice (Oryza sativa); assay: Test Example 3 paddy field treatment, crop phytotoxicity; details: active ingredient 1 kg per hectare, index 0-5; for Herbicidal activity (phytotoxicity) OS: Table 6, paddy field treatment, transplanted rice, 21st day after dropping
Method in brief: (§2)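 Weed seeds sown in puddled paddy soil under 4 cm water, with two-leaf Koshihikari rice transplanted; 10 days later a wettable powder was applied to the water surface at 1 kg active ingredient/ha. Scored 21 days after application on a 0–5 scale (0 = <10%, 5 = ≥90% herbicidal effect or phytotoxicity).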

[4] = tested on: Echinochloa crusgalli; assay: Test Example 3 paddy field treatment; details: active ingredient 1 kg per hectare, index 0-5
Method in brief: as §2

[5] = tested on: Monochoria vaginalis; assay: Test Example 3 paddy field treatment; details: active ingredient 1 kg per hectare, index 0-5
Method in brief: as §2

[6] = tested on: Scirpus juncoides; assay: Test Example 3 paddy field treatment; details: active ingredient 1 kg per hectare, index 0-5
Method in brief: as §2

[7] = tested on: Ammannia multiflora; assay: Test Example 3 paddy field treatment; details: active ingredient 1 kg per hectare, index 0-5
Method in brief: as §2

[8] = tested on: Chenopodium album; assay: Test Example 1 upland field foliage treatment; details: Table 4, upland field foliage treatment, index 0-5
Method in brief: (§3)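 Scores are visual 0–5 ratings of herbicidal effect or crop injury (0: under 10%; 5: 90% or more) taken 21 days after treatment. Plants grew from seed in upland soil for 14 days, then foliage received the compound as a water-diluted wettable powder at 1 kg/ha active ingredient.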

[9] = tested on: Digitaria adscendens; assay: Test Example 1 upland field foliage treatment; details: Table 4, upland field foliage treatment, index 0-5
Method in brief: as §3

[10] = tested on: Stellaria media; assay: Test Example 1 upland field foliage treatment; details: Table 4, upland field foliage treatment, index 0-5
Method in brief: as §3

[11] = tested on: Setaria viridis; assay: Test Example 1 upland field foliage treatment; details: Table 4, upland field foliage treatment, index 0-5
Method in brief: as §3

[12] = tested on: Chenopodium album; assay: Test Example 2 upland soil treatment; details: Table 5, upland soil treatment, index 0-5
Method in brief: as §1

[13] = tested on: Digitaria adscendens; assay: Test Example 2 upland soil treatment; details: Table 5, upland soil treatment, index 0-5
Method in brief: as §1

[14] = tested on: Stellaria media; assay: Test Example 2 upland soil treatment; details: Table 5, upland soil treatment, index 0-5
Method in brief: as §1

[15] = tested on: Setaria viridis; assay: Test Example 2 upland soil treatment; details: Table 5, upland soil treatment, index 0-5
Method in brief: as §1

[16] = tested on: wheat (Triticum aestivum); assay: Test Example 1 upland field foliage treatment, crop phytotoxicity; details: Table 4, upland field foliage treatment, index 0-5
Method in brief: as §3

[17] = tested on: soybean (Glycine max); assay: as above; details: Table 4, upland field foliage treatment, index 0-5
Method in brief: as §3

[18] = paddy field treatment, wettable powder, 21st day after the dropping
[19] = Table 6, paddy field treatment, 21st day after dropping

Compound | Herbicidal activity (phytotoxicity) TA: Wheat (Triticum aestivum) [1] | Herbicidal activity (phytotoxicity) GM: Soybean (Glycine max) [2] | Herbicidal activity CA: Chenopodium album [8] | Herbicidal activity DA: Digitaria adscendens [9] | Herbicidal activity SM: Stellaria media [10] | Herbicidal activity SV: Setaria viridis [11] | Herbicidal activity CA: Chenopodium album [12] | Herbicidal activity DA: Digitaria adscendens [13] | Herbicidal activity SM: Stellaria media [14] | Herbicidal activity SV: Setaria viridis [15] | Herbicidal activity (phytotoxicity) TA: Wheat (Triticum aestivum) [16] | Herbicidal activity (phytotoxicity) GM: Soybean (Glycine max) [17] | Herbicidal activity (phytotoxicity) OS [3] | Herbicidal activity EC [4, 19] | Herbicidal activity MV [5, 19] | Herbicidal activity SJ [6, 19] | Herbicidal activity AM [7, 19] | further results
CNC(=O)C(Cn1cc(C)c(-c2ccc(Oc3ccccc3)cc2)n1)=NOC [Compound 53] | 0 (herbicidal effect of not less than 0% and less than 10%, or phytotoxicity of 0% or more and less than 10%) | 0 (herbicidal effect of not less than 0% and less than 10%, or phytotoxicity of 0% or more and less than 10%) | 5 (herbicidal effect of not less than 90%, or phytotoxicity of 90% or more) | 5 (herbicidal effect of not less than 90%, or phytotoxicity of 90% or more) | 4 (herbicidal effect of not less than 70% and less than 90%, or phytotoxicity of 70% or more and less than 90%) | 4 (herbicidal effect of not less than 70% and less than 90%, or phytotoxicity of 70% or more and less than 90%) | 4 (herbicidal effect of not less than 70% and less than 90%, or phytotoxicity of 70% or more and less than 90%) | 5 (herbicidal effect of not less than 90%, or phytotoxicity of 90% or more) | 4 (herbicidal effect of not less than 70% and less than 90%, or phytotoxicity of 70% or more and less than 90%) | 3 (herbicidal effect of not less than 50% and less than 70%, or phytotoxicity of 50% or more and less than 70%) | 0 (herbicidal effect of not less than 0% and less than 10%, or phytotoxicity of 0% or more and less than 10%) | 0 (herbicidal effect of not less than 0% and less than 10%, or phytotoxicity of 0% or more and less than 10%) | – | – | – | – | – | Herbicidal activity OS (phytotoxicity to rice) ([3]; paddy field treatment, transplanted rice Koshihikari, wettable powder, 21st day after the dropping): 0 (herbicidal effect of not less than 0% and less than 10%, or phytotoxicity of 0% or more and less than 10%); Herbicidal activity EC [4, 18]: 5 (herbicidal effect of not less than 90%, or phytotoxicity of 90% or more); Herbicidal activity MV [5, 18]: 5 (herbicidal effect of not less than 90%, or phytotoxicity of 90% or more); Herbicidal activity SJ [6, 18]: 5 (herbicidal effect of not less than 90%, or phytotoxicity of 90% or more); Herbicidal activity AM [7, 18]: 5 (herbicidal effect of not less than 90%, or phytotoxicity of 90% or more)
CNC(=O)C(Cn1cc(C)c(-c2ccc(F)cc2F)n1)=NOC [Compound 56] | 0 (herbicidal effect of not less than 0% and less than 10%, or phytotoxicity of 0% or more and less than 10%) | 1 (herbicidal effect of not less than 10% and less than 30%, or phytotoxicity of 10% or more and less than 30%) | 5 (herbicidal effect of not less than 90%, or phytotoxicity of 90% or more) | 5 (herbicidal effect of not less than 90%, or phytotoxicity of 90% or more) | 5 (herbicidal effect of not less than 90%, or phytotoxicity of 90% or more) | 5 (herbicidal effect of not less than 90%, or phytotoxicity of 90% or more) | 5 (herbicidal effect of not less than 90%, or phytotoxicity of 90% or more) | 5 (herbicidal effect of not less than 90%, or phytotoxicity of 90% or more) | 5 (herbicidal effect of not less than 90%, or phytotoxicity of 90% or more) | 5 (herbicidal effect of not less than 90%, or phytotoxicity of 90% or more) | 0 (herbicidal effect of not less than 0% and less than 10%, or phytotoxicity of 0% or more and less than 10%) | 0 (herbicidal effect of not less than 0% and less than 10%, or phytotoxicity of 0% or more and less than 10%) | 0 (herbicidal effect of not less than 0% and less than 10%, or phytotoxicity of 0% or more and less than 10%) | 5 (herbicidal effect of not less than 90%, or phytotoxicity of 90% or more) | 5 (herbicidal effect of not less than 90%, or phytotoxicity of 90% or more) | 5 (herbicidal effect of not less than 90%, or phytotoxicity of 90% or more) | 5 (herbicidal effect of not less than 90%, or phytotoxicity of 90% or more) | –
CNC(=O)C(Cn1cc(C)c(-c2cc(F)ccc2F)n1)=NOC [Compound 57] | 0 (herbicidal effect of not less than 0% and less than 10%, or phytotoxicity of 0% or more and less than 10%) | 0 (herbicidal effect of not less than 0% and less than 10%, or phytotoxicity of 0% or more and less than 10%) | 5 (herbicidal effect of not less than 90%, or phytotoxicity of 90% or more) | 5 (herbicidal effect of not less than 90%, or phytotoxicity of 90% or more) | 5 (herbicidal effect of not less than 90%, or phytotoxicity of 90% or more) | 5 (herbicidal effect of not less than 90%, or phytotoxicity of 90% or more) | 5 (herbicidal effect of not less than 90%, or phytotoxicity of 90% or more) | 5 (herbicidal effect of not less than 90%, or phytotoxicity of 90% or more) | 5 (herbicidal effect of not less than 90%, or phytotoxicity of 90% or more) | 5 (herbicidal effect of not less than 90%, or phytotoxicity of 90% or more) | 0 (herbicidal effect of not less than 0% and less than 10%, or phytotoxicity of 0% or more and less than 10%) | 0 (herbicidal effect of not less than 0% and less than 10%, or phytotoxicity of 0% or more and less than 10%) | 0 (herbicidal effect of not less than 0% and less than 10%, or phytotoxicity of 0% or more and less than 10%) | 5 (herbicidal effect of not less than 90%, or phytotoxicity of 90% or more) | 5 (herbicidal effect of not less than 90%, or phytotoxicity of 90% or more) | 5 (herbicidal effect of not less than 90%, or phytotoxicity of 90% or more) | 5 (herbicidal effect of not less than 90%, or phytotoxicity of 90% or more) | –
CNC(=O)C(Cn1cc(C)c(-c2ccc(F)c(F)c2)n1)=NOC [Compound 59] | 0 (herbicidal effect of not less than 0% and less than 10%, or phytotoxicity of 0% or more and less than 10%) | 0 (herbicidal effect of not less than 0% and less than 10%, or phytotoxicity of 0% or more and less than 10%) | 5 (herbicidal effect of not less than 90%, or phytotoxicity of 90% or more) | 5 (herbicidal effect of not less than 90%, or phytotoxicity of 90% or more) | 5 (herbicidal effect of not less than 90%, or phytotoxicity of 90% or more) | 5 (herbicidal effect of not less than 90%, or phytotoxicity of 90% or more) | 5 (herbicidal effect of not less than 90%, or phytotoxicity of 90% or more) | 5 (herbicidal effect of not less than 90%, or phytotoxicity of 90% or more) | 5 (herbicidal effect of not less than 90%, or phytotoxicity of 90% or more) | 5 (herbicidal effect of not less than 90%, or phytotoxicity of 90% or more) | 0 (herbicidal effect of not less than 0% and less than 10%, or phytotoxicity of 0% or more and less than 10%) | 0 (herbicidal effect of not less than 0% and less than 10%, or phytotoxicity of 0% or more and less than 10%) | 0 (herbicidal effect of not less than 0% and less than 10%, or phytotoxicity of 0% or more and less than 10%) | 5 (herbicidal effect of not less than 90%, or phytotoxicity of 90% or more) | 5 (herbicidal effect of not less than 90%, or phytotoxicity of 90% or more) | 5 (herbicidal effect of not less than 90%, or phytotoxicity of 90% or more) | 5 (herbicidal effect of not less than 90%, or phytotoxicity of 90% or more) | –
